Like-named read-outs stand apart in the source and are kept apart here.
Columns and labels:
[1] = cited from earlier work
[2] = Cumulative excretion of radioactivity in urine and feces after injection; format: in vivo; details: rat
Experimental: These studies were conducted over a five-day period, which represents a decay period of […] for 13.2-hr iodine-123. The cumulative excretion levels in urine and feces were 43.2±1.8% injected dose after two days and […] after five days. The radioactive content of the urine (20.8±2.1%) and feces 22.4±1.1%) were similar after two days, but after five days the cumulative fecal activity (41.4±4.3%) was greater than that for urine (30.5±4.0%).

[3] = Tissue distribution of radioactivity in rats after intravenous administration; format: in vivo; details: rat; for tissue uptake at 5 min / tissue uptake at 0.5 h / tissue uptake at 1 h / tissue uptake at 2 h / tissue uptake at 6 h / tissue uptake at 24 h / tissue uptake at 120 h: iv
Experimental: In Table I, the tissue distribution of radioactivity in rats after intravenous administration of a bovine serium-albumin complex of the 15-(p-[^125 I]-iodophenyl)-6-Tellurapentadecanoic acid is summarized for various time periods from 5 minutes to 5 days.

[4] = after five days, % injected dose, 7200 min
[5] = after two days, % injected dose, 2880 min

## CCCCCCCC[123Te]CCCCCCCC(=O)O [9-[^123m Te] telluraheptadecanoic acid]
[1]; Knapp et al 1981
  Uptake and retention in the myocardium (in words): rapid uptake and prolonged retention in the myocardium

## O=C(O)CCCCCCCCCCCCCCc1ccc([125I])cc1 [15-(p-[^125 I]iodophenyl) pentadecanoic acid]
[1]; background
  Washout from the myocardium (in words): relatively rapid

## O=C(O)CCCC[Te]CCCCCCCCCc1ccc([125I])cc1 [15-(p-[^125 I]iodophenyl)-6-tellurapentadecanoic acid]
[2]; [4]
  Cumulative excretion in urine and feces: 71.6±8.3%
  Cumulative fecal activity: 41.4±4.3%
  Cumulative urine activity: 30.5±4.0%
[2]; after two days, 2880 min
  Cumulative excretion in urine and feces: 43.2±1.8 % injected dose
[2]; [5]
  Radioactive content of the feces: 22.4±1.1%
  Radioactive content of the urine: 20.8±2.1%
[3]; after 6 hours
  Heart retention of the maximum uptake observed after 5 minutes: 80%
[3]; after 24 hours
  Heart retention of the maximal value: 55%
[3]; blood, 5 min, read-out: Distribution of radioactivity, Blood
  tissue uptake at 5 min: 0.26 %ID/g
[3]; blood, 30 min, read-out: Distribution of radioactivity, Blood
  tissue uptake at 0.5 h: 0.45 %ID/g
[3]; blood, 60 min, read-out: Distribution of radioactivity, Blood
  tissue uptake at 1 h: 0.34 %ID/g
[3]; blood, 2 h, read-out: Distribution of radioactivity, Blood
  tissue uptake at 2 h: 0.42 %ID/g
[3]; blood, 6 h, read-out: Distribution of radioactivity, Blood
  tissue uptake at 6 h: 0.31 %ID/g
[3]; blood, 1 d, read-out: Distribution of radioactivity, Blood
  tissue uptake at 24 h: 0.2 %ID/g
[3]; blood, 5 d, read-out: Distribution of radioactivity, Blood
  tissue uptake at 120 h: 0.03 %ID/g
[3]; heart, 5 min, read-out: Distribution of radioactivity, Heart
  tissue uptake at 5 min: 5.87 %ID/g
[3]; heart, 30 min, read-out: Distribution of radioactivity, Heart
  tissue uptake at 0.5 h: 5.43 %ID/g
[3]; heart, 60 min, read-out: Distribution of radioactivity, Heart
  tissue uptake at 1 h: 5.55 %ID/g
[3]; heart, 2 h, read-out: Distribution of radioactivity, Heart
  tissue uptake at 2 h: 5.85 %ID/g
[3]; heart, 6 h, read-out: Distribution of radioactivity, Heart
  tissue uptake at 6 h: 4.78 %ID/g
[3]; heart, 1 d, read-out: Distribution of radioactivity, Heart
  tissue uptake at 24 h: 3.25 %ID/g
[3]; heart, 5 d, read-out: Distribution of radioactivity, Heart
  tissue uptake at 120 h: 0.94 %ID/g
[3]; i.v.
  Blood clearance (in words): rapid blood clearance
  Blood levels (in words): low blood levels
  Deiodination (in words): minimal deiodination
  Myocardial uptake (in words): rapid and pronounced myocardial uptake
  Radioactivity accumulated in thyroid tissue (in words): Only marginal radioactivity accumulated in the thyroid tissue
  Retention of radioactivity in the heart (in words): Prolonged retention of radioactivity
[3]; i.v., 5 min
  Distribution of radioactivity, Blood: 2.00 % injected dose/organ
  Distribution of radioactivity, Heart: 2.98 % injected dose/organ
  Distribution of radioactivity, Kidneys: 1.25 % injected dose/organ
  Distribution of radioactivity, Liver: 50.94 % injected dose/organ
  Distribution of radioactivity, Lungs: 0.97 % injected dose/organ
  Distribution of radioactivity, Thyroid: 0.02 % injected dose/organ
[3]; i.v., 30 min
  Distribution of radioactivity, Blood: 3.41 % injected dose/organ
  Distribution of radioactivity, Heart: 2.61 % injected dose/organ
  Distribution of radioactivity, Kidneys: 1.52 % injected dose/organ
  Distribution of radioactivity, Liver: 39.28 % injected dose/organ
  Distribution of radioactivity, Lungs: 1.05 % injected dose/organ
  Distribution of radioactivity, Thyroid: 0.02 % injected dose/organ
[3]; i.v., 60 min
  Distribution of radioactivity, Blood: 2.66 % injected dose/organ
  Distribution of radioactivity, Heart: 2.87 % injected dose/organ
  Distribution of radioactivity, Kidneys: 1.73 % injected dose/organ
  Distribution of radioactivity, Liver: 39.03 % injected dose/organ
  Distribution of radioactivity, Lungs: 1.01 % injected dose/organ
  Distribution of radioactivity, Thyroid: 0.02 % injected dose/organ
[3]; i.v., 2 h
  Distribution of radioactivity, Blood: 3.01 % injected dose/organ
  Distribution of radioactivity, Heart: 2.87 % injected dose/organ
  Distribution of radioactivity, Kidneys: 1.53 % injected dose/organ
  Distribution of radioactivity, Liver: 44.03 % injected dose/organ
  Distribution of radioactivity, Lungs: 1.29 % injected dose/organ
  Distribution of radioactivity, Thyroid: 0.04 % injected dose/organ
[3]; i.v., 6 h
  Distribution of radioactivity, Blood: 2.26 % injected dose/organ
  Distribution of radioactivity, Heart: 2.32 % injected dose/organ
  Distribution of radioactivity, Kidneys: 1.25 % injected dose/organ
  Distribution of radioactivity, Liver: 46.39 % injected dose/organ
  Distribution of radioactivity, Lungs: 0.85 % injected dose/organ
  Distribution of radioactivity, Thyroid: 0.07 % injected dose/organ
[3]; i.v., 1 d
  Distribution of radioactivity, Blood: 1.50 % injected dose/organ
  Distribution of radioactivity, Heart: 1.60 % injected dose/organ
  Distribution of radioactivity, Kidneys: 0.81 % injected dose/organ
  Distribution of radioactivity, Liver: 34.28 % injected dose/organ
  Distribution of radioactivity, Lungs: 0.70 % injected dose/organ
  Distribution of radioactivity, Thyroid: 0.26 % injected dose/organ
[3]; i.v., 5 d
  Distribution of radioactivity, Blood: 0.23 % injected dose/organ
  Distribution of radioactivity, Heart: 0.45 % injected dose/organ
  Distribution of radioactivity, Kidneys: 0.23 % injected dose/organ
  Distribution of radioactivity, Liver: 6.46 % injected dose/organ
  Distribution of radioactivity, Lungs: 0.24 % injected dose/organ
  Distribution of radioactivity, Thyroid: 0.32 % injected dose/organ
[3]; kidneys, 5 min, read-out: Distribution of radioactivity, Kidneys
  tissue uptake at 5 min: 1.02 %ID/g
[3]; kidneys, 30 min, read-out: Distribution of radioactivity, Kidneys
  tissue uptake at 0.5 h: 1.25 %ID/g
[3]; kidneys, 60 min, read-out: Distribution of radioactivity, Kidneys
  tissue uptake at 1 h: 1.41 %ID/g
[3]; kidneys, 2 h, read-out: Distribution of radioactivity, Kidneys
  tissue uptake at 2 h: 1.37 %ID/g
[3]; kidneys, 6 h, read-out: Distribution of radioactivity, Kidneys
  tissue uptake at 6 h: 1.12 %ID/g
[3]; kidneys, 1 d, read-out: Distribution of radioactivity, Kidneys
  tissue uptake at 24 h: 0.7 %ID/g
[3]; kidneys, 5 d, read-out: Distribution of radioactivity, Kidneys
  tissue uptake at 120 h: 0.2 %ID/g
[3]; liver, 5 min, read-out: Distribution of radioactivity, Liver
  tissue uptake at 5 min: 9.57 %ID/g
[3]; liver, 30 min, read-out: Distribution of radioactivity, Liver
  tissue uptake at 0.5 h: 7.78 %ID/g
[3]; liver, 60 min, read-out: Distribution of radioactivity, Liver
  tissue uptake at 1 h: 7.69 %ID/g
[3]; liver, 2 h, read-out: Distribution of radioactivity, Liver
  tissue uptake at 2 h: 8.38 %ID/g
[3]; liver, 6 h, read-out: Distribution of radioactivity, Liver
  tissue uptake at 6 h: 8.37 %ID/g
[3]; liver, 1 d, read-out: Distribution of radioactivity, Liver
  tissue uptake at 24 h: 6.24 %ID/g
[3]; liver, 5 d, read-out: Distribution of radioactivity, Liver
  tissue uptake at 120 h: 1.28 %ID/g
[3]; lungs, 5 min, read-out: Distribution of radioactivity, Lungs
  tissue uptake at 5 min: 1.14 %ID/g
[3]; lungs, 30 min, read-out: Distribution of radioactivity, Lungs
  tissue uptake at 0.5 h: 1.25 %ID/g
[3]; lungs, 60 min, read-out: Distribution of radioactivity, Lungs
  tissue uptake at 1 h: 1.48 %ID/g
[3]; lungs, 2 h, read-out: Distribution of radioactivity, Lungs
  tissue uptake at 2 h: 1.57 %ID/g
[3]; lungs, 6 h, read-out: Distribution of radioactivity, Lungs
  tissue uptake at 6 h: 1.1 %ID/g
[3]; lungs, 1 d, read-out: Distribution of radioactivity, Lungs
  tissue uptake at 24 h: 0.89 %ID/g
[3]; lungs, 5 d, read-out: Distribution of radioactivity, Lungs
  tissue uptake at 120 h: 0.33 %ID/g
[3]; thyroid, 5 min, read-out: Distribution of radioactivity, Thyroid
  tissue uptake at 5 min: 1.52 %ID/g
[3]; thyroid, 30 min, read-out: Distribution of radioactivity, Thyroid
  tissue uptake at 0.5 h: 1.51 %ID/g
[3]; thyroid, 60 min, read-out: Distribution of radioactivity, Thyroid
  tissue uptake at 1 h: 1.48 %ID/g
[3]; thyroid, 2 h, read-out: Distribution of radioactivity, Thyroid
  tissue uptake at 2 h: 3.51 %ID/g
[3]; thyroid, 6 h, read-out: Distribution of radioactivity, Thyroid
  tissue uptake at 6 h: 5.89 %ID/g
[3]; thyroid, 1 d, read-out: Distribution of radioactivity, Thyroid
  tissue uptake at 24 h: 22.8 %ID/g
[3]; thyroid, 5 d, read-out: Distribution of radioactivity, Thyroid
  tissue uptake at 120 h: 30.2 %ID/g
[3]; thyroid, after 5 minutes, read-out: Radioactivity accumulated in the thyroid tissue
  tissue uptake at 5 min: 1.52 %ID/g
[3]; thyroid, after 6 hours, read-out: Radioactivity accumulated in the thyroid tissue
  tissue uptake at 6 h: 5.84 %ID/g

## O=C(O)CCCCCCCCCCCCCCc1ccc(I)cc1 [15-(p-iodophenyl) pentadecanoic acid]
[1]; Machulla et al 1980
  Concentration of radioactive iodide in the blood (in words): avoids the high concentration of radioactive iodide in the blood
